Values of other authors as cited in US10548859B2, “Methods for storing Cysteamine formulations and related methods of treatment” (Horizon Orphan LLC, priority 2015, dated 2020).

Conditions: children with cystinosis

COc1ccc2c(c1)c(CC(=O)O)c(C)n2C(=O)c1ccc(Cl)cc1 [indomethacin]
reduction of urine volume and liquid consumption: about 30%
